According to a compilation of properties of binary mixtures (doi:10.1016/j.jct.2020.106150):

Assay: xn = mol fraction of the nth substance listed
Details: 100 kPa

CCCC[P+](C)(CCCC)CCCC.COS(=O)(=O)[O-] + O=Cc1ccco1
x1 = 1
Details | speed of sound [m/s] | viscosity [mPa·s]
293.15 K | 1563.7 | 730
298.15 K | 1546.1 | 520
303.15 K | 1529.7 | 380
308.15 K | 1514.3 | 290
313.15 K | 1499.2 | 217
318.15 K | 1485.7 | 169
323.15 K | 1472.1 | 133

O=Cc1ccco1 + CCCC[P+](C)(CCCC)CCCC.COS(=O)(=O)[O-]
Details | speed of sound [m/s] | viscosity [mPa·s]
293.15 K, x2 = 0 | 1459.1 | 1.62
293.15 K, x2 = 0.062 | 1482.3 | 2.5
293.15 K, x2 = 0.142 | 1505.9 | 21.3
293.15 K, x2 = 0.249 | 1527 | 65
293.15 K, x2 = 0.317 | 1541.2 | 95
293.15 K, x2 = 0.399 | 1556.3 | 134
293.15 K, x2 = 0.499 | 1563.9 | 190
293.15 K, x2 = 0.732 | 1568.5 | 400
293.15 K, x2 = 0.823 | 1566.1 | 500
293.15 K, x2 = 0.863 | 1565.4 | 560
293.15 K, x2 = 0.91 | 1563.4 | 610
293.15 K, x2 = 0.951 | 1563.1 | 660
298.15 K, x2 = 0 | 1440.2 | 1.48
298.15 K, x2 = 0.142 | 1489.6 | 10.1
298.15 K, x2 = 0.191 | 1499.2 | 17.1
298.15 K, x2 = 0.249 | 1511.1 | 31
298.15 K, x2 = 0.317 | 1525.5 | 47
298.15 K, x2 = 0.399 | 1540.4 | 72
298.15 K, x2 = 0.499 | 1548.6 | 101
298.15 K, x2 = 0.624 | 1555.2 | 160
298.15 K, x2 = 0.732 | 1552.5 | 270
298.15 K, x2 = 0.823 | 1550.2 | 350
298.15 K, x2 = 0.863 | 1549.3 | 390
298.15 K, x2 = 0.91 | 1547.2 | 440
298.15 K, x2 = 0.951 | 1546.2 | 480
303.15 K, x2 = 0 | 1422 | 1.36
303.15 K, x2 = 0.062 | 1454.5 | 2.14
303.15 K, x2 = 0.1 | 1463 | 3.1
303.15 K, x2 = 0.142 | 1472.1 | 4.1
303.15 K, x2 = 0.249 | 1493.1 | 8.7
303.15 K, x2 = 0.317 | 1508.5 | 25
303.15 K, x2 = 0.399 | 1524.3 | 40
303.15 K, x2 = 0.499 | 1534.6 | 55
303.15 K, x2 = 0.624 | 1539.8 | 93
303.15 K, x2 = 0.823 | 1533.5 | 260
303.15 K, x2 = 0.863 | 1532.5 | 290
303.15 K, x2 = 0.91 | 1531.2 | 320
303.15 K, x2 = 0.951 | 1530.1 | 350
308.15 K, x2 = 0 | 1403.8 | 1.26
308.15 K, x2 = 0.062 | 1434 | 1.99
308.15 K, x2 = 0.1 | 1443.5 | 3
308.15 K, x2 = 0.191 | 1466.5 | 5.6
308.15 K, x2 = 0.249 | 1476.3 | 7.7
308.15 K, x2 = 0.399 | 1508.3 | 20.4
308.15 K, x2 = 0.499 | 1515.9 | 34
308.15 K, x2 = 0.732 | 1521.5 | 133
308.15 K, x2 = 0.823 | 1519.8 | 194
308.15 K, x2 = 0.863 | 1517.1 | 217
308.15 K, x2 = 0.91 | 1516.5 | 241
308.15 K, x2 = 0.951 | 1515.5 | 270
313.15 K, x2 = 0.062 | 1418.8 | 1.76
313.15 K, x2 = 0.142 | 1438.3 | 3.6
313.15 K, x2 = 0.191 | 1449 | 5.6
313.15 K, x2 = 0.249 | 1459.5 | 6.7
313.15 K, x2 = 0.317 | 1475.5 | 8.8
313.15 K, x2 = 0.399 | 1492.4 | 11.5
313.15 K, x2 = 0.499 | 1501.5 | 17.9
313.15 K, x2 = 0.624 | 1509.5 | 43
313.15 K, x2 = 0.732 | 1505.7 | 101
313.15 K, x2 = 0.823 | 1504.6 | 146
313.15 K, x2 = 0.863 | 1502.3 | 165
313.15 K, x2 = 0.91 | 1500.7 | 185
313.15 K, x2 = 0.951 | 1500.5 | 201
318.15 K, x2 = 0 | 1367.8 | 1.09
318.15 K, x2 = 0.1 | 1410.1 | 2.5
318.15 K, x2 = 0.191 | 1431.3 | 4.3
318.15 K, x2 = 0.317 | 1457.6 | 7
318.15 K, x2 = 0.399 | 1476.4 | 9.9
318.15 K, x2 = 0.624 | 1494.6 | 32
318.15 K, x2 = 0.732 | 1493.4 | 81
318.15 K, x2 = 0.823 | 1489.6 | 116
318.15 K, x2 = 0.863 | 1488.6 | 130
318.15 K, x2 = 0.91 | 1488.2 | 144
318.15 K, x2 = 0.951 | 1486.5 | 158
323.15 K, x2 = 0 | 1349.9 | 1.02
323.15 K, x2 = 0.062 | 1386 | 1.53
323.15 K, x2 = 0.1 | 1394.5 | 2.3
323.15 K, x2 = 0.142 | 1402.1 | 3.3
323.15 K, x2 = 0.317 | 1443.6 | 6
323.15 K, x2 = 0.399 | 1460.6 | 8.6
323.15 K, x2 = 0.499 | 1469.8 | 18.6
323.15 K, x2 = 0.624 | 1479.9 | 27
323.15 K, x2 = 0.732 | 1479.9 | 73
323.15 K, x2 = 0.823 | 1478.2 | 99
323.15 K, x2 = 0.863 | 1477.2 | 110
323.15 K, x2 = 0.91 | 1476.1 | 117
323.15 K, x2 = 0.951 | 1474.6 | 126
